Test results published in patent US20240342190A1, “METHODS FOR REDUCING ISCHEMIA-REPERFUSION INJURIES” (BioMimetix JV, LLC, priority 2023, published 2024).
“Also recorded” adds a separate entry of the source.

What was measured:
[1] = test system: young male spontaneously hypertensive rats (SHR) subjected to 90 min of MCAO; experiment: Experiment 4: stroke outcome in young spontaneously hypertensive rats; format: in vivo, rat; details: for Neurologic score: median±IQR
Experimental: (§1) The rats were fasted overnight for glucose control. On the surgery day, they were anesthetized with 5% isoflurane in 30% oxygen balanced with nitrogen. The trachea was orally intubated, and both lungs were mechanically ventilated to maintain normocapnia. Isoflurane was reduced to 1.5% during the surgical procedure. A 22-gauge needle thermistor was percutaneously inserted beneath the temporalis muscle adjacent to the skull. The pericranial temperature was maintained at 37.0° C.±0.2° C. by a surface heat lamp. The tail artery was cannulated with PE 50 tubing (BD Intramedic™ Polyethylene Tubing, Sparks, MD, USA), and arterial blood pressure was continuously monitored. 50 IU of heparin was given via arterial line to prevent intra-arterial thrombosis. Arterial blood samples were collected pre, during, and after ischemia for blood gas, glucose, and hematocrit measurements.
(§2) Ischemic stroke was induced by transiently occluding the middle cerebral artery (MCAO) as previously reported.^23,24 Briefly, a midline cervical incision was made and the right common carotid artery […] was identified. The external and internal carotid arteries were dissected. […] The internal carotid artery (ICA) was dissected distally until the origin of the pterygopalatine artery was visualized. After surgical preparation, a 10 min interval was allowed for physiologic stabilization. […] The common carotid artery was re-opened, and a timer was started as the onset of cerebral ischemia.
(§3) After 90 min of MCAO, the filament was removed and a PE-10 tube (BD Intramedic™ Polyethylene Tubing, Sparks, MD, USA) was inserted into the ICA beyond the origin of the pterygopalatine artery. The vehicle or BMX-001 (30-50 μg/kg) solution (1 μl/g for both solutions, 250 μl for the 250 g rat) was slowly infused for 5 minutes via syringe pump. At the completion of intra-carotid infusion, the PE tube was removed and the ECA stump was permanently ligated. The tail artery catheter was removed and both the neck incision and tail incision were infiltrated with bupivacaine and closed with suture. Isoflurane was discontinued. Rats were disconnected from the ventilator when they attained spontaneous respiration and kept in a recovery cage. The tracheas were extubated after recovery of the righting reflex. They were in an O2 enriched environment (30% O2) for 1 h and then returned to the home cage.
(§4) Post-stroke neurologic deficits were assessed at day 7 and 28 using a standardized neurological scoring system.^27,28 General status, simple motor deficit, complex motor deficit, and sensory deficit were evaluated, including the ability of walking on a beam and climbing on the vertical screen. The total score each animal received was the sum of all four individual scores (0-48, 0=normal and 48=the worst score).
(§5) Upon the completion of functional tests, the animals were weighed, anesthetized with isoflurane, and decapitated. The brains were harvested, frozen at −20° C. in 2-methylbutane on dry ice, and stored in a −80° C. freezer. Serial quadruplicate 20-μm-thick coronal sections were cut using a Leica cryostat and mounted on the slides at 720-μm interval over the rostral-caudal extent of the brain. The sections were dried on a slide heater at 36° C., and stained with hematoxylin and eosin. A section from each […] interval was digitized with a video camera controlled by an image analyzer (MCID, the MicroComputer Imaging Device, Imaging Research Inc, St. Catharines, Ontario, Canada). […] With the observer blinded to the experimental condition, the following regions of interest (ROI) were outlined individually using an operator-controlled cursor, including non-infarcted ipsilateral cerebral cortex, non-infarcted ipsilateral subcortex, contralateral cerebral cortex, and contralateral subcortex. The area in each ROI (mm^2) was determined by automated counting of calibrated pixels and the volume (mm^3) was computed by the known interval between sections over the rostral-caudal extent of brain. […]

[2] = test system: young male Wistar rats subjected to 90 min of MCAO (ischemic stroke); experiment: Experiment 3: duration of BMX-001 treatment and long-term stroke outcome in young male rats; format: in vivo, rat; details: for MAP: 10 minutes post-stroke; for Neurologic score: median±IQR; for Body weight: p=0.37; for Total infarct: measured at 28 days, p=0.46
Experimental: as §1, §2, §3, §4, §5

[3] = test system: aged female Fisher 344 rats subjected to 90 min of MCAO; experiment: Experiment 5: stroke outcome in aged female rats; format: in vivo, rat; details: for Neurologic score: median±IQR, p<0.001
Experimental: as §1, §2, §3, §4, §5

[4] = test system: blood brain barrier; experiment: Experiment 7: blood brain barrier permeability after intracarotid infusion (Evans blue content); details: non-stroke rats, vs vehicle
Experimental: 30 μg/kg of BMX-001 (n=4), or same amount of saline (n=4) or mannitol (n=4) was given to normal male Wistar rats through the carotid artery. The rats received 100 μl 2% Evans blue intravenous infusion 30 min later and then intracardially perfused using 100 ml normal saline at 30 min following infusion. Brains were harvested and the Evans blue content was measured spectrophotometrically.

[5] = Experiment 8: interaction of BMX-001 with t-PA (blood clot dissolution); parameters: species or system rat; details: blood clot dissolution, t-PA vs t-PA plus BMX-001
Experimental: Fresh arterial blood samples were collected from young male rats and distributed into 21 pre-weighed centrifuge tubes. After sitting at 37° C. for 3 hours, the blood clots were formed. The supernatant was removed from these tubes and then the tubes with blood clots were weighed. The weight of the blood clot was calculated (=the tube with blood clot-pre-weighed tube). Then, 1 ml saline, t-PA (1 mg/ml) or t-PA (1 mg/ml) plus BMX-001 (50 μg/ml) were added (n=7 for each group) and tubes placed in 37° C. dry incubator for 3 hours. The liquids were then removed from the tubes. The tubes with remaining blood clots were weighed again. The percentage of blood clot dissolved by t-PA was calculated.

[6] = test system: brain tissues and vessels (vascular endothelial wall); experiment: Experiment 7: body weight and brain/vascular histology after intracarotid infusion; details: non-stroke rats; 3 days after intracarotid infusion; H&E
Experimental: 30 μg/kg of BMX-001 (n=4), or same amount of saline (n=4) or Solu-Medrol (n=4) was given to normal Wistar rats through the carotid artery. Rats were recovered for 3 days and perfused intracardially with normal saline followed by 10% formalin. Brains were paraffin embedded, cut, and stained with hematoxylin and eosin. Vascular histologic damage was assessed.

[7] = printed 'on day 28 in BMX-001 group'

CCCCOCC[n+]1ccccc1C1=C2C=CC3=[N+]2[Mn]24[n]5c1ccc5C(c1cccc[n+]1CCOCCCC)=C1C=CC(=[N+]12)C(c1cccc[n+]1CCOCCCC)=c1ccc([n]14)=C3c1cccc[n+]1CCOCCCC [BMX-001, MnTnBuOE-2-PyP^5+]
MAP ([1]; 10 minutes post-stroke, SHR rats): 83 ± 11 mmHg
Infarct volume (FIG. 4, Panel C), in words ([1]; 28 days): no intra-group difference
Subcortex infarct volume ([1]; 28 days, p=0.14): 51±23 mm^3
Total infarct volume ([1]; 28 days, p=0.21): 179±51 mm^3
Cortex infarct volume ([1]; 28 days, p=0.37): 128±37 mm^3
Neurologic score ([1]; day 7, p=0.05 vs vehicle): 14±8
Neurologic score ([1]; day 28, p=0.018 vs vehicle): 9.5±6.25
Neurological deficits (FIG. 4, Panel B), in words ([1]; day 28 post-stroke): significantly improved
Rats survived for 28 days ([1]; of n=15, three BMX-001 rats died at 8, 9 and 10 days after stroke): 12
MAP ([2]; group BMX-001 for 7 days): 67 ± 5 mmHg
MAP ([2]; group BMX-001 for 28 days): 71 ± 6 mmHg
Neurological deficits (FIG. 3, Panel B), in words ([2]; both day 7 and day 28 post-stroke): significantly improved
Neurologic score ([2]; day 7 post-stroke, 7 days of BMX-001 group): 10±8
Neurologic score ([2]; day 7 post-stroke, 28 days of BMX-001 group): 11±8
Body weight ([2]; day 7 post-stroke, printed 'on day 7 in BMX-001 group'): 276±46 grams
Infarct volume (FIG. 3, Panel C), in words ([2]; day 28): no intra-group difference
Neurologic score ([2]; day 28 post-stroke, 7 days of BMX-001): 6±5
Neurologic score ([2]; day 28 post-stroke, 28 days of BMX-001): 6±4
Total infarct ([2]; 7 days of BMX-001 group): 131±66 mm^3
Total infarct [2, 7]: 112±64 mm^3
Body weight [2, 7]: 280±33 grams
MAP ([3]; 10 minutes post-stroke, aged female Fisher 344 rats): 90 ± 13 mmHg
Infarct volume (FIG. 5, Panel C), in words ([3]; 28 days after stroke): significantly reduced infarct volume
Reduction of infarct volume ([3]; 28 days after stroke, vs vehicle): 60%
Subcortex infarct volume ([3]; 28 days, p=0.0010): 10±12 mm^3
Total infarct volume ([3]; 28 days, p=0.0037 vs vehicle): 31±41 mm^3
Cortex infarct volume ([3]; 28 days, p=0.0122 vs vehicle): 21±32 mm^3
Neurologic score ([3]; day 7): 4±4.75
Neurologic functions (FIG. 5, Panel B), in words ([3]; day 7 and 28 post-stroke): significantly attenuated neurologic deficits
Body weight ([3]; day 7 post-stroke): 233±19 grams
Body weight loss from the baseline body weight ([3]; day 7 post-stroke): 8 grams
Neurologic score ([3]; day 28): 4±4.75
Rats died at post-stroke day 2 due to large infarct ([3]; of n=17): one
Evans blue content in brain / blood brain barrier permeability, in words [4]: only somewhat higher Evans blue content; also recorded: did not affect the BBB
Interaction of BMX-001 with t-PA, in words [5]: does not React with t-PA
Brain histology / vascular histologic damage, in words [6]: normal; also recorded: no histologic damage
